# In the supplement of paper PMC10307832:
# Columns and labels:
# Assay in all cases: relative viability (nuclei count vs DMSO), 5 days (fraction); higher = more cells survive
# [1] = compound: C1COCCN1C2=NC(=NC3=C2OC4=C3C=CC=N4)C5=CC(=CC=C5)NC(=O)C6=CN=C(C=C6)N + COc1cccc2cc(-c3nc([C@H]4CC[C@H](C(=O)O)CC4)n4ncnc(N)c34)[nH]c12 [OSI-027] (partner 0.5 µM)
# Procedure, shortened: (§1)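 Relative viability equals treated-well nuclei counts divided by vehicle-well nuclei counts. Counts came from 4× images of lung cancer cell lines grown in 1536-well plates for 5 days after pin-tool dosing on the day after seeding. Dosing used one drug alone or a fixed anchor-drug dose plus five library-drug doses (not always all listed) in √10 steps, and values are medians of duplicate plates.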
# [2] = compound: C1COCCN1C2=NC(=NC3=C2OC4=C3C=CC=N4)C5=CC(=CC=C5)NC(=O)C6=CN=C(C=C6)N + Nc1ncn([C@H]2C[C@H](O)[C@@H](CO)O2)c(=O)n1 [Decitabine] (partner 2 µM)
# Procedure, shortened: as §1
# SGI-1776 + Decitabine = compound: CN1CCC(CNc2ccc3ncc(-c4cccc(OC(F)(F)F)c4)n3n2)CC1 [SGI-1776] + Nc1ncn([C@H]2C[C@H](O)[C@@H](CO)O2)c(=O)n1 [Decitabine] (partner 2 µM)
# Procedure, shortened: as §1
# Entinostat + Foretinib = compound: Nc1ccccc1NC(=O)c1ccc(CNC(=O)OCc2cccnc2)cc1 [Entinostat] + COc1cc2c(Oc3ccc(NC(=O)C4(C(=O)Nc5ccc(F)cc5)CC4)cc3F)ccnc2cc1OCCCN1CCOCC1 [Foretinib] (partner 0.25 µM)
# Procedure, shortened: as §1
Cell Line,relative viability ([1]; first compound 0.02 µM),relative viability ([1]; first compound 0.06325 µM),relative viability ([1]; first compound 0.2 µM),relative viability ([1]; first compound 0.6325 µM),relative viability ([1]; first compound 2 µM),relative viability ([2]; first compound 0.02 µM),relative viability ([2]; first compound 0.06325 µM),relative viability ([2]; first compound 0.2 µM),relative viability ([2]; first compound 0.6325 µM),relative viability ([2]; first compound 2 µM),relative viability (SGI-1776 + Decitabine; first compound 0.08 µM),relative viability (SGI-1776 + Decitabine; first compound 0.8 µM),relative viability (SGI-1776 + Decitabine; first compound 2.53 µM),relative viability (SGI-1776 + Decitabine; first compound 8 µM),relative viability (Entinostat + Foretinib; first compound 0.02 µM),relative viability (Entinostat + Foretinib; first compound 0.06325 µM),relative viability (Entinostat + Foretinib; first compound 0.2 µM),relative viability (Entinostat + Foretinib; first compound 0.6325 µM),relative viability (Entinostat + Foretinib; first compound 2 µM)
201T,0.858,0.743,0.72,0.515,0.851,0.864,0.856,0.872,0.862,0.785,0.847,0.894,0.886,0.827,1.12,1.22,1.2,0.958,0.453
A549,,,,,,,0.362,0.265,0.238,0.256,0.303,0.238,0.285,0.097,1.01,0.942,0.878,0.757,0.288
A-427,0.407,0.416,0.469,0.399,0.394,0.588,0.512,0.619,0.679,0.579,0.601,0.587,0.539,0.521,1.2,1.16,1.06,1,0.811
ABC-1,0.462,0.451,0.461,0.368,0.407,0.929,1.07,0.98,1.23,1.08,1.08,1.09,0.909,0.954,1.05,1.19,0.906,0.805,0.545
BEN,0.283,0.297,0.295,0.274,0.389,0.75,0.762,0.697,0.752,0.637,0.733,0.711,0.635,0.554,0.782,0.756,0.465,0.498,0.283
CAL-12T,0.579,0.583,0.446,0.477,0.323,,,,,,,,,,1.17,1.14,1.27,1.07,1.01
COR-L23,0.937,0.733,0.739,0.704,0.432,0.478,0.502,0.469,0.602,0.389,0.445,0.456,0.466,0.342,0.919,0.857,0.943,0.495,0.308
COR-L 105,0.623,0.645,0.576,0.556,0.414,0.604,0.683,0.61,0.621,0.572,0.75,0.705,0.737,0.544,1.19,0.997,1.14,0.677,0.548
Calu-6,,,,,,,,,,,,,,,0.889,0.849,0.873,0.565,0.513
ChaGo-K-1,0.529,0.566,0.523,0.586,0.466,0.563,0.544,0.517,0.601,0.458,0.56,0.542,0.558,0.47,1.06,0.914,0.893,0.842,0.673
EBC-1,,,,,,,,,,,,,,,0.0998,0.0994,0.101,0.0814,0.0684
EKVX,0.626,0.484,0.888,0.673,0.558,0.335,0.321,0.325,0.383,0.567,0.291,0.397,0.355,0.305,0.879,0.996,0.863,0.572,0.409
EMC-BAC-2,0.346,0.406,0.333,0.346,0.32,0.96,1.06,0.947,0.953,0.779,0.964,0.994,1.08,0.915,1.03,0.938,0.814,0.608,0.513
EPLC-272H,0.311,0.305,0.289,0.247,0.328,0.329,,0.386,0.382,0.376,0.371,0.365,0.395,0.322,0.684,0.783,0.512,0.243,0.223
H3255,0.626,0.56,0.464,0.465,0.552,0.577,0.575,0.599,0.798,0.559,0.609,0.582,0.654,0.487,0.889,0.89,0.639,0.567,0.381
HARA,0.52,0.609,0.381,0.391,0.283,0.529,0.569,0.64,0.576,0.412,0.574,0.72,0.529,0.448,0.903,0.913,1.01,0.341,0.416
